Format in all cases: cell-based
In one data set the test system is HBV. The data set is described as follows: Anti-viral assay in HepG2.2.15 cells: HBV inhibitory activity (HBV DNA in culture medium by q-PCR). Particulars: Hepatitis B virus, HepG2.2.15, 144 h. The source says:
(§1) Example 2: Anti-Viral Assay in HepG2.2.15 Cells
(§2) 1.1. Cell line • HepG2.2.15 (the HepG2.2.15 cell line can be produced by transfection of the HepG2 cell line as described in Sells, Chen, and Acs 1987 (Proc. Natl. Acad. Sci. USA 84:1005-1009), and the HepG2 cell line is available from ATCC® under number HB-8065™).
(§3) Seed the cell HepG2.2.15 cells into 96-well plate in 2% FBS culture medium at the density of 40,000 cells/well and 5,000 cells/well for HBV inhibitory activity and cytotoxicity determination, respectively. After seeding, incubate the cell plates at 37° C., 5% CO2 overnight. The next day, medium containing compounds is added to the cell to treat the cells for 6 days with medium refreshed once in the middle of the treatment. 8 dose points with 3 folds dilution of each compound were adopted and the highest concentration of the compounds is 10 uM and 100 uM for HBV inhibitory activity and cytotoxicity determination, respectively.
The HBV DAN change in the cell culture medium induced by the compounds is measured by q-PCR method. Briefly, the HBV DNA in the culture medium is extracted using QIAamp 96 DNA Blood Kit according to the manual and then quantified by q-PCR using the primers and probe in the table below.
(§4) 2.2. DATA Analysis EC50 and CC50 values are calculated by the GRAPHPAD PRISM software.

The nature of data set [1]: Cytotoxicity determination in HepG2.2.15 cells (CCK-8). Particulars: human, 6 days treatment, CCK-8, highest concentration 100 uM.
From the text: as §1, §2, §3
(§5) After 6 days of compounds treatment, add 20 μl CCK-8 reagents to each well of cytotoxicity assay plates, incubate the plate at 37° C., 5% CO2 for 2.5 h and measure the absorbance at 450 nm wavelength, at the same time read the absorbance at 630 nm wavelength as reference.
as §4

A further data set concerns HepG2.2.15 cells. Described as above. Particulars: 6 days treatment, CCK-8, highest concentration 100 uM.
From the text: as §1, §2, §3, §5, §4

Setting [2] is: HepG2.2.15 cells, 6 days treatment, HBV DNA in culture medium by q-PCR, highest concentration 10 uM, read-out: EC50.

Counter-ions that a name gives are not always drawn. Like-named read-outs stand apart in the source and are kept apart here.

For the compound `COC(=O)C1=C(C2CCN(c3ncc(C)c(C(=O)O)n3)CC2)NC(c2nccs2)=NC1c1cccc(F)c1C` (single isomer, unassigned) [II-5-B], the EC50 in the data set with HBV (setting [2]) was found to be 0.049 µM. The same compound showed a CC50 at 6 days in data set [1] of 25.8 µM. In turn, `CCOC(=O)C1=C(C2CCN(c3nc(C)c(C(=O)O)o3)CC2)NC(c2nccs2)=NC1c1ccc(F)c(F)c1Cl` (single isomer, unassigned) [II-64-B, Lithium 2-(4-(6-(2-chloro-3,4-difluorophenyl)-5-(ethoxycarbonyl)-2-(thiazol-2-yl)-3,6-dihydropyrimidin-4-yl)piperidin-1-yl)-4-methyloxazole-5-carboxylate] gave an EC50 with HBV of 0.075 µM. The CC50 in the data set on HepG2.2.15 cells is 6.84 µM. In turn, `CCOC(=O)Cc1coc([C@H]2CC[C@H](C3=C(C(=O)OCC)C(c4ccc(F)c(F)c4Cl)N=C(c4nccs4)N3)CC2)n1` (single isomer, unassigned) [VII-23-Y, (trans)-Ethyl 4-(2-chloro-3,4-difluorophenyl)-(4-(4-(2-ethoxy-2-oxoethyl)oxazol-2-yl)cyclohexyl)-2-(thiazol-2-yl)-1,4-dihydropyrimidine-5-carboxylate] yielded a cytotoxic concentration (CC50) at 6 days in data set [1] of 8.18 µM. Regarding `CCOC(=O)C1=C(C2CCN(c3cnc(C(=O)O)s3)CC2)NC(c2nccs2)=NC1c1ccc(F)c(F)c1Cl` (single isomer, unassigned) [II-76-B, 5-(4-(6-(2-Chloro-3,4-difluorophenyl)-5-(ethoxycarbonyl)-2-(thiazol-2-yl)-3,6-dihydropyrimidin-4-yl)piperidin-1-yl)thiazole-2-carboxylate lithium salt], the midpoint of the response with HBV, the EC50, lay at 0.09 µM. In the data set with HepG2.2.15 cells, this compound gave a CC50 of 6.68 µM. `CCOC(=O)C1=C([C@H]2CC[C@@H](n3nccc3C(=O)O)CC2)NC(c2nccs2)=NC1c1ccc(F)c(F)c1Cl` (single isomer, unassigned) [Compound I-39-B, (cis)-1-(4-(6-(2-Chloro-3,4-difluorophenyl)-5-(ethoxycarbonyl)-2-(thiazol-2-yl)-3,6-dihydropyrimidin-4-yl)cyclohexyl)-1H-pyrazole-5-carboxylic acid]: the 50% effective concentration (EC50) in the data set with HBV (setting [2]) was found to be 0.082 µM. With `CCOC(=O)C1=C(C2CCN(c3ncc(C(=O)O)c(OC)n3)CC2)NC(c2nccs2)=NC1c1ccc(F)c(F)c1Cl` (single isomer, unassigned) [II-72-B, 2-(4-(6-(2-Chloro-3,4-difluorophenyl)-5-(ethoxycarbonyl)-2-(thiazol-2-yl)-3,6-dihydropyrimidin-4-yl)piperidin-1-yl)-4-methoxypyrimidine-5-carboxylic acid], the EC50 in the data set on HBV (setting [2]) amounted to 0.062 µM. Moreover, the half-maximal cytotoxic concentration (CC50) at 6 days in data set [1] worked out at 5.59 µM.
